From patent US12697353B2, “Compositions comprising cinnamaldehyde and zinc and methods of using such compositions” (SOCIÉTÉ DES PRODUITS NESTLÉ S.A., priority 2015, dated 2026)

Legend:
[1] = nose temperature after ingestion in human subjects; type: in vivo; conditions: fifteen minutes following ingestion, FIG. 7
Method: The nose temperature of the subjects was analyzed over the fifteen minutes following ingestion of the various compounds.

[2] = molecular target: T1, hTRPA1 expressed in CHO cells (Homo sapiens, UniProt O75762); test: in vitro activity of hTRPA1 expressed in CHO cells, intracellular calcium concentration with a fluorescent dye; type: cell-based; design: dose or concentration left out as unconfirmed; conditions: according to a dose-response curve
T1 construct: expressed in transfected cells; host or cells: CHO cells

[3] = energy expenditure after ingestion in human subjects; type: in vivo
Method: Human subjects were administered placebo, a cooling flavor, capsaicin, or cinnamaldehyde. The energy expenditure was measured over the eighty minutes following ingestion. […] The increased sympathetic activity identified by measuring the facial temperature (increased blood flow on the chin) might explain the increased energy expenditure measured by indirect calorimetry.

[4] = postprandial fat oxidation after ingestion in human subjects; type: in vivo
Method: The postprandial fat oxidation was measured over the 90 minutes following ingestion of the various compounds.

[5] = chin temperature after ingestion in human subjects; type: in vivo; conditions: eighty minutes following ingestion, FIG. 8
Method: The chin temperature of the subjects was measured over the eighty minutes following ingestion of the various compounds.

[6] = insulin sensitivity in mice with chronic ingestion of cinnamaldehyde in a high fat diet; type: in vivo; conditions: mice chronically fed a high fat diet containing 0.2 wt % cinnamaldehyde, FIG. 11
Description: The composition can thereby reduce glycemia.

TRPA1 = TRPA1 (Homo sapiens, UniProt O75762); conditions: read-out: EC50 of TRPA1 activation; cited from earlier work
[7] = at a flavoring level judged significantly less intense than capsaicin

Chain of TRPA1 (O75762 whole entry, species assumed): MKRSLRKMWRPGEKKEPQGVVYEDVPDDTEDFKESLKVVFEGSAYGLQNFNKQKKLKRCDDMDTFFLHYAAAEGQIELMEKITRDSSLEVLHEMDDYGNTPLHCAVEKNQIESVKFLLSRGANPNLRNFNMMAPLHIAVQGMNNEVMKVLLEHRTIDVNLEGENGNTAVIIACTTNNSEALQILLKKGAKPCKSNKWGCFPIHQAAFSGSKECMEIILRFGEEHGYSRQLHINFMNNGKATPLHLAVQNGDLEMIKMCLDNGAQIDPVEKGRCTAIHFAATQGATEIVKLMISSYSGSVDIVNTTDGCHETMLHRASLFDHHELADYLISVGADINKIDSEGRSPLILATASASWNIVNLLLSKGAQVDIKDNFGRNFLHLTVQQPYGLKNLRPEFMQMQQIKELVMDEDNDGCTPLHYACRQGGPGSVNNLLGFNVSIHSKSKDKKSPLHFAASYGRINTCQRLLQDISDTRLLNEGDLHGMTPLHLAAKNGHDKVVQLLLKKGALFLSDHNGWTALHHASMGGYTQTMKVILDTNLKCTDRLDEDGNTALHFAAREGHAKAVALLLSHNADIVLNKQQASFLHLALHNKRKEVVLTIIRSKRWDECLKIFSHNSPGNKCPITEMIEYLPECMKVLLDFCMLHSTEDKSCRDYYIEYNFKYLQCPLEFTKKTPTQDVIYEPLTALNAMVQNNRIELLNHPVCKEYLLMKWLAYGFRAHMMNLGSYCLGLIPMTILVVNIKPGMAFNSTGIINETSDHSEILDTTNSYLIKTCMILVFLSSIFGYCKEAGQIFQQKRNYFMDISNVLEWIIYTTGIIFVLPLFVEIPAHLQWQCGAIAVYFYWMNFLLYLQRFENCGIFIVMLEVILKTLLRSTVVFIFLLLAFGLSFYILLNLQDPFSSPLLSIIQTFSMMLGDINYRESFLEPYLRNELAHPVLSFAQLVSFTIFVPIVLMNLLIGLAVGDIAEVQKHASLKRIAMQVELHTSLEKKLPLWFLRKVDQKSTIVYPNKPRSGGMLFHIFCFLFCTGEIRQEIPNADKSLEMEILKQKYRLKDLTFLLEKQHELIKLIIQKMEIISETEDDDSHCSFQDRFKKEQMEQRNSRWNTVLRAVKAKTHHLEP
T1 sequence (O75762 whole entry): as the sequence (O75762 whole entry, species assumed) above

| Structure (SMILES) | nose temperature [1] | efficacy on hTRPA1 of the positive control C+ [2] | impact on energy expenditure and sympathetic nervous system activity compared to capsaicin [3, 7] | energy expenditure compared to placebo ([3]; human subjects, eighty minutes following ingestion, time course and AUC, FIGS. 3 and 4) | effect on fat oxidation compared to capsaicin [4, 7] | postprandial fat oxidation compared to placebo ([4]; human subjects, 90 minutes following ingestion, time course and AUC, FIGS. 5 and 6) | chin temperature relative to baseline [5] | insulin sensitivity relative to mice fed the same high fat diet without cinnamaldehyde [6] | EC50 (TRPA1) [µM] |
| --- | --- | --- | --- | --- | --- | --- | --- | --- | --- |
| COc1cc(CNC(=O)CCCC/C=C/C(C)C)ccc1O [capsaicin, reference compound] | increase nose temperatures | – | – | – | – | – | – | – | – |
| O=CC=Cc1ccccc1 [cinnamaldehyde] | increase nose temperatures | maximum efficacy | significantly higher impact | increased | equivalent effect | maintained at higher levels | increases chin temperature for a prolonged time | improved insulin sensitivity | ~10 |
